Like-named read-outs stand apart in the source and are kept apart here. Where a SMILES comes first, the peptide text is derived from it.

The target in assay [1] is T1, Plk1 PBD (Homo sapiens, UniProt P53350).
T1 construct: Mitotic 293A lysates expressing HA-EGFP-Plk1 were prepared in the TBSN buffer; expressed in transfected cells; host or cells: 293A cells, mitotic lysate
The experiment in a line: ELISA-based Plk1 PBD-binding inhibition assay. As to the method: The wells were washed once with PBS + 0.05% Tween 20 (PBST), and incubated with 200 µl of PBS + 1% BSA (blocking buffer) for 1 h to prevent the unoccupied sites. […] Next, the plates were washed four times with PBST, and to detect the bound HA-EGFP-Plk1, the plates were incubated for 2 h with 100 µL/well of anti-HA antibody at a concentration of 0.5 µg/mL in the blocking buffer, and then the plates were washed five times. Furthermore, the plates were incubated with 100 µL/well of secondary antibody at a 1:1,000 dilution in the blocking buffer. Afterward, the plates were washed five times with PBST and incubated with 100 µL/well of 3,3′,5,5′-tetramethylbenzidine (TMB) substrate solution (Sigma, St. Louis, MO) until a desired absorbance was achieved. The reactions were terminated by the addition of 1 N H2SO4, and the optical densities were measured at 450 nm using an ELISA plate reader (Molecular Device, Sunnyvale, CA).
In general terms: In an ELISA, binding on a coated surface is turned into a signal by an enzyme label.

The target in assay [2] is T2, PBD of Plk1 (Homo sapiens, UniProt P53350).
T2 construct: The Plk1 PBD protein (residues 371−603) was purified as previously described; made in house
The experiment in a line: Fluorescence polarization assay, Plk1 PBD. Type of assay: binding. The settings on record: 25 nM 5-carboxyfluorescein-DPPLHSpTAI-OH, Figure 8, read-out: IC50 PBD1. The procedure: Fluorescein-labeled peptides (5-carboxyfluorescein-DPPLHSpTAI-OH, final concentration: 25 nM) were incubated with the PBDs of Plk1, Plk2, and Plk3, respectively (final concentrations of buffer components: 10 mM Tris [pH 8.0], 1 mM EDTA, 50 mM NaCl, and 0.01% Nonidet P-40). Fluorescence polarization was analyzed 10 min after mixing all components in the 384-well format using a Molecular Devides SpectraMax Paradigm Multi-Mode Microplate Detection Platform. All experiments were performed in triplicate.

The target of assay [3] is T1, Plk1 PBD. Set-up: method as in PMID 19597481. The settings on record: cited from earlier work.
[4] abbreviates: ELISA-based assay, text values referring to Figure 2, read-out: IC50 (Plk1 PBD binding).
Where [5] appears, read: first-phase N-alkylated Pro derivatives, HA-EGFP-Plk1 from mitotic 293A lysates vs immobilized p-T78 peptide, Figure 2, read-out: IC50 (ELISA-based Plk1 PBD-binding assay, Figure 2B).

T1 sequence (P53350 whole entry): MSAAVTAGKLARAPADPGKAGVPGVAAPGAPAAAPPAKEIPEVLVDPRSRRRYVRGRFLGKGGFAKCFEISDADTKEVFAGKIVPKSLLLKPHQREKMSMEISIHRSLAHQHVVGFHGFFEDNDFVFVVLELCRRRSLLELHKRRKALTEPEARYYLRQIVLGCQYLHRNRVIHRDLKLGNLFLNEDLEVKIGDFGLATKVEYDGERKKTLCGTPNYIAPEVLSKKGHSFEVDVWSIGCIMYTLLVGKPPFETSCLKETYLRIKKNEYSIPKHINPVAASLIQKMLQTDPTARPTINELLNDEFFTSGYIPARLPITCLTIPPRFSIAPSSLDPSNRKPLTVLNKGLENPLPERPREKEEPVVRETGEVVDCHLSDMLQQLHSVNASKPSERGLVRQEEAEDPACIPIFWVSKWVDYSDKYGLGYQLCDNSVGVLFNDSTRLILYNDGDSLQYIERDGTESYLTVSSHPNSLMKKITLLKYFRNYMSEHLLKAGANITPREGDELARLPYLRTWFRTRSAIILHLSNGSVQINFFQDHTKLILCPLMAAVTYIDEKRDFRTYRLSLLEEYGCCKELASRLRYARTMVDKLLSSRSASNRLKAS
T2 sequence (P53350 371-603): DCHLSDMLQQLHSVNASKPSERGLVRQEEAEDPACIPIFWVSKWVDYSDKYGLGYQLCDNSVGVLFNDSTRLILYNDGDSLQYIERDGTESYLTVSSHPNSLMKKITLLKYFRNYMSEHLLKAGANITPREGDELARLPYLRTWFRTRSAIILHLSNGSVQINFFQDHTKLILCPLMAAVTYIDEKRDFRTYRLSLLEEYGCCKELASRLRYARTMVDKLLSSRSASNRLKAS

The IC50 is the concentration that inhibits the measured activity by half. Turning to `COc1cc(CN2CCC[C@H]2C(=O)N[C@@H](CC(C)C)C(=O)N[C@@H](Cc2c[nH]cn2)C(=O)N[C@@H](CO)C(=O)N[C@H](C(=O)N[C@@H](CCSC)C(N)=O)[C@@H](C)OP(=O)(O)O)cc(OC)c1OC` [PL-42, (MeO)3PhCH2PLHSpTM] (HELM PEPTIDE1{[COc1cc(CN2CCC[C@H]2C(=O)[*:2])cc(OC)c1OC].L.H.S.[C[C@@H](OP(=O)(O)O)[C@H](N[*:1])C(=O)[*:2]].M.[am]}$$$$V2.0), the results for the half-maximal inhibitory concentration (IC50) in assay [1] (setting [4]), in assay [1] (setting [5]) and in assay [2] were 1480 nM, 1640 nM and 522 nM, respectively.

Regarding `CSCC[C@H](NC(=O)[C@@H](NC(=O)[C@H](CO)NC(=O)[C@H](Cc1c[nH]cn1)NC(=O)[C@H](CC(C)C)NC(=O)[C@@H]1CCCN1Cc1cc2c(cc1Cl)OCO2)[C@@H](C)OP(=O)(O)O)C(N)=O` [PL-43] (HELM PEPTIDE1{[O=C([C@@H]1CCCN1Cc1cc2c(cc1Cl)OCO2)[*:2]].L.H.S.[C[C@@H](OP(=O)(O)O)[C@H](N[*:1])C(=O)[*:2]].M.[am]}$$$$V2.0), the 50% inhibitory concentration (IC50) in assay [1] (setting [5]) turned out to be 4470 nM.

In the case of `CSCC[C@H](NC(=O)[C@@H](NC(=O)[C@H](CO)NC(=O)[C@H](Cc1c[nH]cn1)NC(=O)[C@H](CC(C)C)NC(=O)[C@@H]1CCCN1CC1CCCCC1)[C@@H](C)OP(=O)(O)O)C(N)=O` [PL-49, cyclohexylmethyl-PLHSpTM] (HELM PEPTIDE1{[O=C([C@@H]1CCCN1CC1CCCCC1)[*:2]].L.H.S.[C[C@@H](OP(=O)(O)O)[C@H](N[*:1])C(=O)[*:2]].M.[am]}$$$$V2.0), the figures for the IC50 in assay [1] (setting [4]) and in assay [1] (setting [5]) were 360 nM and 410 nM, respectively.

Take `CSCC[C@H](NC(=O)[C@@H](NC(=O)[C@H](CO)NC(=O)[C@H](Cc1c[nH]cn1)NC(=O)[C@H](CC(C)C)NC(=O)[C@@H]1CCCN1C(=O)CC12CC3CC(CC(C3)C1)C2)[C@@H](C)OP(=O)(O)O)C(N)=O` [PL-55] (HELM PEPTIDE1{[O=C(CC12CC3CC(CC(C3)C1)C2)[*:2]].P.L.H.S.[C[C@@H](OP(=O)(O)O)[C@H](N[*:1])C(=O)[*:2]].M.[am]}$$$$V2.0): the IC50 in assay [2] was 131 nM.

Consider `CSCC[C@H](NC(=O)[C@@H](NC(=O)[C@H](CO)NC(=O)[C@H](Cc1c[nH]cn1)NC(=O)[C@H](CC(C)C)NC(=O)[C@@H]1CCCN1C(=O)CC1CCCCC1)[C@@H](C)OP(=O)(O)O)C(N)=O` [PL-57] (HELM PEPTIDE1{[O=C(CC1CCCCC1)[*:2]].P.L.H.S.[C[C@@H](OP(=O)(O)O)[C@H](N[*:1])C(=O)[*:2]].M.[am]}$$$$V2.0), for which, in assay [1] (first-phase N-acylated cyclohexyl analogues, values printed in picture of Figure 4, read-out: IC50 (ELISA-based Plk1 PBD-binding assay, Figure 4B)), the IC50 was 520 nM.

With LHSpTA, in assay [3], the “binding to Plk1 PBD compared with PLHSpT” value was “almost as efficiently as the PLHSpT did”.

The values are drawn from PMC3819306, “Exploring the Binding Nature of Pyrrolidine Pocket-Dependent Interactions in the Polo-Box Domain of Polo-Like Kinase 1” (PLoS ONE, 2013).
